Assay results as given in US20230416202A1, “Small Molecule Compounds and Compositions” (Telo Therapeutics, Inc., priority 2020, published 2023).
Like-named read-outs stand apart in the source and are kept apart here.

What was measured:
Type in all cases: cell-based, human
Mutant TERT = assay: HepG2 hTERT mRNA assay (qPCR); settings: Homo sapiens; HepG2 cells (mutated TERT), 48 hours, TERT mRNA via qPCR
Method: (§1) HepG2 cells (hepatocyte carcinoma (HCC) cells; with mutated TERT) or HEK293T cells (with wild type (wt) TERT) were seeded at 4,000 cells/well in 96-well plates. The following day, test compounds were added to cells for at concentrations of 25 uM, 12.5 uM, 6.25 uM, 3.125 uM, 1.563 uM, 0.781 uM, 0.391 uM, 0.195 uM, 0.098 uM or vehicle control (0.1% DMSO). Each condition was tested in three replicate wells. 48 hours post drug addition, the cells were harvested for RNA using the 96-Magmax RNA Isolation kit (Cat. No. AM1830). RNA was converted to cDNA using the Superscript III First strand cDNA synthesis kit (Cat. No. 18080051). RNA and cDNA concentration and quality were determined using the NanoQuant nucleic acid quantification method. 500 ng cDNA from each sample was used to detect TERT mRNA via qPCR. GUSB was also measured as an internal control and fold change to vehicle control was determined using the delta CT method.

wt TERT = assay: HEK293T hTERT mRNA assay (qPCR)
Method: as §1

HepG2 cells = assay: HepG2 cytostatic
HEK293 cells = assay: HEK293 cytostatic; settings: for IC50: read-out: wt Tert IC50 uM HEK293 cytostatic
[1] = Homo sapiens, HEK-293T, wild type TERT, read-out: wt TERT IC50
[2] = Homo sapiens, HEK293 cells (wt TERT), 48 hours, class symbols, read-out: wt TERT IC50 uM HEK293
[3] = Homo sapiens, HEK293, HEK293 cells

Compound	IC50 (Mutant TERT)	IC50 (wt TERT; [1])	IC50 (wt TERT; [2])	Cytostatic IC50 uM HepG2 cytostatic (HepG2 cells)	wt Tert IC50 uM HEK293 cytostatic (HEK293 cells; HEK293 cells)	IC50 (HepG2 cells; Homo sapiens)	IC50 (HEK293 cells; [3])	IC50 (HEK293 cells; HEK293 cells)	IC50 (wt TERT; HEK293 cells (wt TERT), 48 hours, class symbols, read-out: wt TERT IC50 uM HEK293)	IC50 (wt TERT; wild type TERT, read-out: wt TERT IC50)	IC50 (HepG2 cells)
O=C(O)CC1CC(c2ccc(C(F)(F)F)cc2)CN(Cc2ccc(C(F)(F)F)cc2)C1 (racemic) [Compound 100, rac-2-((anti)-1-(4-(trifluoromethyl)benzyl)-5-(4-(trifluoromethyl)phenyl)piperidin-3-yl)acetic acid]	0.5 to 5 µM	> 25 µM	> 25 µM	“++”-“+”	“++”-“+”						
COc1cccc([C@H]2C[C@H](CC(=O)O)CN(Cc3ccc(C(F)(F)F)cc3)C2)c1 (racemic) [Compound 103, 2-((anti)-5-(3-methoxyphenyl)-1-(4-(trifluoromethyl)benzyl)piperidin-3-yl)acetic acid]	> 25 µM	> 25 µM	> 25 µM			5 to 25 µM	5 to 25 µM				
O=C(O)C[C@H]1C[C@H](c2cccc(C(F)(F)F)c2)CN(Cc2ccc(C(F)(F)F)cc2)C1 (racemic) [Compound 104, rac-2-((anti)-1-(4-(trifluoromethyl)benzyl)-5-(3-(trifluoromethyl)phenyl)piperidin-3-yl)acetic acid]		> 25 µM	> 25 µM			5 to 25 µM	5 to 25 µM				
COc1ccc([C@H]2C[C@H](CC(=O)O)CN(Cc3ccc(C(F)(F)F)cc3)C2)cc1 (racemic) [Compound 105, 2-((anti)-5-(4-methoxyphenyl)-1-(4-(trifluoromethyl)benzyl)piperidin-3-yl)acetic acid]	0.5 to 5 µM	> 25 µM	> 25 µM			5 to 25 µM	5 to 25 µM				
COc1cc([C@H]2C[C@H](CC(=O)O)CN(Cc3ccc(C(F)(F)F)cc3)C2)cc(C(F)(F)F)c1 (racemic) [Compound 106, rac-2-((anti)-5-(3-methoxy-5-(trifluoromethyl)phenyl)-1-(4-(trifluoromethyl)benzyl)piperidin-3-yl)acetic acid]	0.5 to 5 µM	> 25 µM	> 25 µM			0.5 to 5 µM	5 to 25 µM				
N#Cc1ccc([C@@H]2C[C@@H](CC(=O)O)CN(Cc3ccc(C(F)(F)F)cc3)C2)cc1 (racemic) [Compound 107, 2-((anti)-5-(4-cyanophenyl)-1-(4-(trifluoromethyl)benzyl)piperidin-3-yl)acetic acid]	5 to 25 µM	> 25 µM	> 25 µM			5 to 25 µM	> 25 µM				
CC(C(=O)O)[C@@H]1C[C@@H](c2ccc(C(F)(F)F)cc2)CN(Cc2ccc(C(F)(F)F)cc2)C1 (single isomer, unassigned) [Compound 113]	0.5 to 5 µM	> 25 µM	> 25 µM			0.5 to 5 µM		5 to 25 µM			
CC(C(=O)O)[C@@H]1C[C@@H](c2ccc(C(F)(F)F)cc2)CN(Cc2ccc(C(F)(F)F)cc2)C1 (single isomer, unassigned) [Compound 114]								0.5 to 5 µM	> 25 µM	> 25 µM	0.5 to 5 µM
O=C(O)C[C@H]1C[C@H](c2ccc(C(F)(F)F)cc2)CN(Cc2ccc(C(F)(F)F)cc2)C1 [Compound 102, 2-((3R,5R)-1-(4-(trifluoromethyl)benzyl)-5-(4-(trifluoromethyl)phenyl)piperidin-3-yl)acetic acid]	5 to 25 µM	> 25 µM	> 25 µM			5 to 25 µM	5 to 25 µM				
COc1cc(CN2C[C@H](CC(=O)O)C[C@@H](c3ccc(C(F)(F)F)cc3)C2)cc(C(F)(F)F)c1 [Compound 108, 2-((3S,5S)-1-(3-methoxy-5-(trifluoromethyl)benzyl)-5-(4-(trifluoromethyl)phenyl)piperidin-3-yl)acetic acid]	> 25 µM	> 25 µM	> 25 µM			> 25 µM					
COc1ccc(CN2C[C@H](CC(=O)O)C[C@@H](c3ccc(C(F)(F)F)cc3)C2)cc1 [Compound 109]	> 25 µM	> 25 µM	> 25 µM			0.5 to 5 µM	5 to 25 µM				
C#Cc1ccc(CN2C[C@H](CC(=O)O)C[C@@H](c3ccc(C(F)(F)F)cc3)C2)cc1 [Compound 112, 2-((3S,5S)-1-(4-ethynylbenzyl)-5-(4-(trifluoromethyl)phenyl)piperidin-3-yl)acetic acid]	< 0.5 µM	> 25 µM	> 25 µM			0.5 to 5 µM	> 25 µM				
N#Cc1ccc(CN2C[C@H](CC(=O)O)C[C@@H](c3ccc(C(F)(F)F)cc3)C2)cc1 [Compound 115, 2-((3S,5S)-1-(4-cyanobenzyl)-5-(4-(trifluoromethyl)phenyl)piperidin-3-yl)acetic acid]	0.5 to 5 µM	> 25 µM	> 25 µM			0.5 to 5 µM	5 to 25 µM				
